Test results as given in US7473699B2, “3-cyclyl-5-(nitrogen-containing 5-membered ring)methyl-oxazolidinone derivatives and their use as antibacterial agents” (AstraZeneca AB, priority 2002, dated 2009).
pKi: −log10 of the molar value. Values after ≈ are worked out from the molar mass of the structure shown. Like-named read-outs stand apart in the source and are kept apart here.

Experiments:
Streptococcus pneumoniae = assay: MIC, agar-dilution, Streptococcus pneumoniae; format: cell-based
Method: (§1) The following results were obtained on a standard in-vitro test system. The activity is described in terms of the minimum inhibitory concentration (MIC) determined by the agar-dilution technique with an inoculum size of 10^4 CFU/spot. Typically, compounds are active in the range 0.01 to 256 μg/ml.
(§2) Streptococci and enterococci were tested on agar supplemented with 5% defibrinated horse blood, an inoculum of 10^4 CFU/spot and an incubation temperature of 37° C. in an atmosphere of 5% carbon dioxide for 48 hours—blood is required for the growth of some of the test organisms. Fastidious Gram negative organisms were tested in Mueller-Hinton broth, supplemented with hemin and NAD, grown aerobically for 24 hours at 37° C., and with an innoculum of 5×10^4 CFU/well.

Streptococcus pyogenes = assay: MIC, agar-dilution, Streptococcus pyogenes; format: cell-based
Method: as §1, §2

Moraxella catarrhalis = assay: MIC, fastidious Gram negative organisms in Mueller-Hinton broth, Moraxella catarrhalis; format: cell-based
Method: as §1, §2

MAO-A = molecular target: T1, MAO-A (Homo sapiens, UniProt P21397); assay: MAO-A standard in-vitro assay, human liver enzyme expressed in yeast; format: biochemical
T1 construct: made in house; host or cells: yeast
T1 sequence (P21397 1-527): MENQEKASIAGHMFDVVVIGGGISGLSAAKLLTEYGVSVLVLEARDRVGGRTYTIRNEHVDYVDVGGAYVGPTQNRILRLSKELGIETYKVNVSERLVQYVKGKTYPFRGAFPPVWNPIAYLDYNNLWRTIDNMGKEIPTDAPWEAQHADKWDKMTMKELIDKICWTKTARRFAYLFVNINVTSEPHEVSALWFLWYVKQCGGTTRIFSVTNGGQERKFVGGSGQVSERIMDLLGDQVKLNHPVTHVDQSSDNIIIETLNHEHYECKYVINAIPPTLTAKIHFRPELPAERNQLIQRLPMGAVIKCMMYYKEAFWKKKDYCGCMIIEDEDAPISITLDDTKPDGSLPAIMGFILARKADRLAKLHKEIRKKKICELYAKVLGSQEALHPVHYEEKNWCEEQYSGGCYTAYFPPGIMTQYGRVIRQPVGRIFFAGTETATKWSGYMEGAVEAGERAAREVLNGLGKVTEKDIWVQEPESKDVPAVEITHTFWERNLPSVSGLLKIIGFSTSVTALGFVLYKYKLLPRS
Method: The activity of the compounds of the invention against MAO-A was tested using a standard in-vitro assay based on human liver enzyme expressed in yeast as described in Biochem. Biophys. Res. Commun. 1991, 181, 1084-1088. Ki values were determined using serial two-fold dilutions from […] to 0.04 μM.

Haemophilus influenzae = assay: MIC, fastidious Gram negative organisms in Mueller-Hinton broth, Haemophilus influenzae; format: cell-based
Method: as §1, §2

[1] = system: Staphylococcus aureus MSQS; assay: MIC, agar-dilution, Staphylococcus aureus MSQS; format: cell-based; conditions: Staphylococcus aureus MSQS (methicillin sensitive and quinolone sensitive)
Method: as §1
(§3) Staphylococci were tested on agar, using an inoculum of 10^4 CFU/spot and an incubation temperature of 37° C. for 24 hours—standard test conditions for the expression of methicillin resistance.

[2] = system: Staphylococcus aureus MRQR; assay: MIC, agar-dilution, Staphylococcus aureus MRQR; format: cell-based; conditions: Staphylococcus aureus MRQR (methicillin resistant and quinolone resistant)
Method: as §1, §3

[3] = first line (strain not given), read-out: MIC

SMILES	MIC (Streptococcus pneumoniae; [3]) [µg/mL]	MIC (Streptococcus pneumoniae; second line (strain not given)) [µg/mL]	MIC (Streptococcus pyogenes) [µg/mL]	MIC (Moraxella catarrhalis) [µg/mL]	pKi (MAO-A)	MIC (Haemophilus influenzae) [µg/mL]	MIC [1] [µg/mL]	MIC [2] [µg/mL]
Cc1cn(C[C@H]2CN(c3ccc(C4=CC[S+]([O-])CC4)c(F)c3)C(=O)O2)nn1 (mixture of isomers) [Example 1, (5R)-3-[4-(1(R,S)-Oxo-3,6-dihydro-2H-thiopyran-4-yl)-3-fluorophenyl]-5-[(4-methyl)-1,2,3-triazol-1-ylmethyl]oxazolidin-2-one]	0.5	0.5	1	2	4.80	2	2	4
O=C1O[C@@H](Cn2ccnn2)CN1c1ccc(C2=CC[S+]([O-])CC2)c(F)c1 (some centres unmarked) [Reference Example 1]	1 (≈ 2.66 µM)	1 (≈ 2.66 µM)	1 (≈ 2.66 µM)	2 (≈ 5.31 µM)	5.44	4 (≈ 10.6 µM)	2 (≈ 5.31 µM)	2 (≈ 5.31 µM)
CC(=O)NC[C@H]1CN(c2ccc(C3=CC[S+]([O-])CC3)c(F)c2)C(=O)O1 (some centres unmarked) [Reference Example 2]					6.30			
